Like-named read-outs stand apart in the source and are kept apart here. Non-standard residues stand in square brackets, D forms with d. Residues, ends and D or L forms follow the SMILES beside them. *: point of attachment. Nva = CCC[C@H](N)C(=O)O; Cbz = O=C(OCc1ccccc1)*
What was measured:
Panc-I cells = experiment: Celltiter 96 Aqueous cell proliferation assay, Panc-I; type: cell-based; conditions: 18 hours with compound
Procedure: (§1) Compounds prepared according to the method of Example 1 were assayed against several different cell lines. Cell monolayers were cultured in the presence of test compound for 18 hours to access their ability to inhibit cell proliferation. Cell proliferation was determined colorimetrically using the Celltiter 96 Aqueous non-radioactive cell proliferation assay (Promega) where cell proliferation is directly proportional to absorbance at 490 nm. Results are quoted as the IC50 in μg/ml for inhibition of cell proliferation in various cell types.

RAW cells = experiment: Celltiter 96 Aqueous cell proliferation assay, RAW; type: cell-based; conditions: 18 hours with compound
Procedure: as §1

OVCAR cells = experiment: Celltiter 96 Aqueous cell proliferation assay, OVCAR; type: cell-based; conditions: 18 hours with compound
Procedure: as §1

IκB degradation = experiment: Inhibition of LPS-induced IκB degradation, Western blot of RAW cell lysates; type: cell-based; conditions: 1 hour pretreatment, LPS 100 ng/ml 1 hour, anti-IκBα Western blot (FIG. 1)
Description: (§2) This Example examines the ability of compound 173 and particularly compound 187 described in Tables 1 & 2 above to inhibit proteasome activity as indicated, in part, by the presence of IκB and/or p105 in inhibited cells. In order for NF-κB to translocate to the nucleus in response to a stimulus such as lipopolysaccharide (LPS) and activate transcription two proteolytic events need to occur, namely degradation of the inhibitory protein IκB and processing of p105 to p50. These proteolytic events serve to unmask the nuclear localization signal of NF-κB.
RAW cells were pretreated with different concentrations of test compound for 1 hour prior to the administration of lipopolysaccharide (100 ng/ml). Whole cell lysates were harvested after 1 hour, 10 μg, protein was separated by SDS-PAGE, transferred to nitrocellulose and assayed for immunoreactivity with anti-IκBa antibody. Western blots, (See FIG. 1), were visualized using the Boehringer Mannheim Chemiluminescent detection kit.

[1] = system: LPS induced TNF synthesis; experiment: Inhibition of LPS induced TNF synthesis in RAW cells (ELISA); type: cell-based; conditions: 1 hour pretreatment, LPS 100 ng/ml, supernatant after 1 hour
Procedure: Compounds prepared according to the method of Example 1 were tested for the inhibition of LPS induced TNF synthesis. RAW cells were pretreated with different concentrations of test compound for 1 hour prior to the administration of lipopolysaccharide (100 ng/mi). Cell culture supernatants were harvested after 1 hour and assayed for TNF concentration by ELISA (Biosource)

CaCo cells = experiment: Celltiter 96 Aqueous cell proliferation assay, CaCo; type: cell-based; conditions: 18 hours with compound
Procedure: as §1

[2] = target: T1, 20S catalytic subunit of the proteasome (multicatalytic proteinase complex) (Bos taurus, UniProt Q32KL2); experiment: 20S proteasome chymotryptic activity, fluorogenic peptide cleavage; type: biochemical, bovine; conditions: 50 μM succinyl-leu-leu-val-tyr-7-amino-4-methyl coumarin, 15 minutes at 37° C, pH7.5
T1 construct: was purified to homogeneity from bovine brain according to published methods; from tissue; host or cells: bovine brain
Outline: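 Purified bovine-brain 20S proteasome (2 μg) with 0.1-100 μg/ml inhibitor in 50 mM HEPES, 0.1% SDS, pH 7.5. Reaction started with 50 μM Suc-LLVY-AMC, 15 min at 37° C, stopped with pH 4.0 acetate; liberated AMC read by fluorescence (ex 370, em 430 nm).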

MCF-7 cells = experiment: Celltiter 96 Aqueous cell proliferation assay, MCF-7; type: cell-based; conditions: MCF-7, 18 hours with compound
Procedure: as §1

p105 to p50 processing = experiment: Inhibition of LPS-induced p105 to p50 processing, Western blot of RAW cell lysates; type: cell-based; conditions: 1 hour pretreatment, anti-p50 Western blot (FIG. 2)
Description: as §2
Compound 187 as described in Tables 1 & 2 above was used to pretreat RAW cells as described above, and whole cell lysates prepared as described above were analyzed for immunoreactivity toward an anti-p50 antibody. The results, set forth in FIG. 2 indicate that p50 and […] are both present in cells treated with as little as 5 μg/ml of compound 187, while in untreated cells, majority of P 105 has been processed to p50.

NF-κB = experiment: Inhibition of LPS-induced translocation of NF-κB to the nucleus, gel mobility shift assay; type: cell-based; conditions: RAW cells, 20 μg/ml for 1 hour, then LPS 100 ng/ml 1 hour (FIG. 3)
Procedure: RAW cells were treated for 1 hour with compound 187 (20 μg/ml) and then incubated with lipopolysaccharide (100 ng/ml) for a further one hour. Nuclear fractions were prepared according to standard procedures. Binding reactions for gel mobility shift assays contained 5 μg of nuclear extract protein, 50,000 cpm of ^32 P-labeled NF-κB consensus binding oligonucleotide in the presence and absence of a fifty fold excess of unlabeled oligonucleotide.

[3] = target: T2, chymotrypsin-like activity associated with the proteasome (Homo sapiens, UniProt P28074); conditions: cited from earlier work
T2 sequence (P28074 60-263): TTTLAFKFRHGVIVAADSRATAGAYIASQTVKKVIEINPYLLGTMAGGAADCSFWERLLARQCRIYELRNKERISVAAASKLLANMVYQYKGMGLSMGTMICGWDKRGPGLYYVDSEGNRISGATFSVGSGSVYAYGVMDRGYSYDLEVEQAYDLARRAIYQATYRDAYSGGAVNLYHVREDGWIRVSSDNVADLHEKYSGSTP

| Molecule | IC50 for inhibition of cell proliferation, Panc-I (Panc-I cells) [µg/mL] | IC50 for inhibition of cell proliferation, RAW (RAW cells) [µg/mL] | IC50 for inhibition of cell proliferation, OVCAR (OVCAR cells) [µg/mL] | concentration at which IκB is present in treated cells (IκB degradation) [µg/mL] | IC50 inhibition of LPS induced TNF synthesis [1] [µg/mL] | IC50 for inhibition of cell proliferation, CaCo (CaCo cells) [µg/mL] | IC50 [2] [µg/mL] | IC50 for inhibition of cell proliferation, MCF-7 (MCF-7 cells) [µg/mL] | concentration at which p50 and p150 are both present in treated cells (p105 to p50 processing) [µg/mL] | accumulation of NF-κB in the nucleus of cells (NF-κB) | Ki ([3]; literature values) [nM] | Ki ([3]; literature value) [nM] |
| --- | --- | --- | --- | --- | --- | --- | --- | --- | --- | --- | --- | --- |
| COc1ccc2c(c1)C(CC(=O)NC(CC(C)C)C(=O)NC(CC(C)C)C(=O)NCc1ccccc1)CC2=O (mixture of isomers) [Compound 173] | 17 | 20 | 8 | ≤ 5 | 5 | 17 | 0.5 | 10 |  |  |  |  |
| COc1ccc2c(c1)C(CC(=O)NC(CC(C)C)C(=O)NC(CC(C)C)C(=O)NC1CCc3ccccc31)CC2=O (mixture of isomers) [Compound 187] | 7 | 10 | 5 | ≤ 5 | 5 | 8 | 0.5 | 6 | ≤ 5 | effective in inhibiting the accumulation of NF-κB in the nucleus of cells |  |  |
| COc1ccc(CNC(=O)C(CC(C)C)NC(=O)C(CC(C)C)NC(=O)CC2CC(=O)c3ccc(OC)cc32)cc1 (mixture of isomers) [Compound 194] | 8 | 1 | 3 |  | 3 |  | > 10 |  |  |  |  |  |
| COc1ccc2c(c1)C(CC(=O)NC(CC(C)C)C(=O)NC(CC(C)C)C(=O)NCc1c(F)cccc1F)CC2=O (mixture of isomers) [Compound 196] | 8 | 7 | 2 |  | 3 |  | 0.08 |  |  |  |  |  |
| COc1ccc2c(c1)C(CC(=O)NC(CC(C)C)C(=O)NC(CC(C)C)C(=O)NCc1ccc3c(c1)OCO3)CC2=O (mixture of isomers) [Compound 197] | 8 | 12 | 2 |  | 3 |  | 0.2 |  |  |  |  |  |
| CSCC[C@@H](C=O)NC(=O)[C@H](CC(C)C)NC(=O)[C@H](CC(C)C)NC(C)=O [LLM, N-acetyl-L-leucinyl-L-leucinyl-methional] (Ac-Leu-Leu-Met-aldehyde) |  |  |  |  |  |  |  |  |  |  | 140 |  |
| CCC[C@@H](C=O)NC(=O)[C@H](CC(C)C)NC(=O)[C@H](CC(C)C)NC(=O)OCc1ccccc1 [MG 115, N-carbobenzoxyl-L-leucinyl-L-leucinyl-L-norvalinal] (Cbz-Leu-Leu-[Nva]-aldehyde) |  |  |  |  |  |  |  |  |  |  |  | 21 |
| N-acetyl-L-leucinyl-L-leucinal-L-norleucinal [ALLN] |  |  |  |  |  |  |  |  |  |  | 140 |  |
